In ChEMBL document CHEMBL4373747 (ACS Med Chem Lett, 2020):

Tests used:
Histone deacetylase 5 = Histone deacetylase 5 (Homo sapiens, UniProt Q9UQL6); test: Inhibition of recombinant full length human HDAC5 expressed in baculovirus infected Sf9 cells using FAM-RHKK-TFAc as substrate incubated for 3 hrs by electrophoretic mobility shift assay
[1] = molecular target: T1, Polyamine deacetylase HDAC10 (Homo sapiens, UniProt Q969S8); test: Inhibition of recombinant full length human HDAC10 expressed in baculovirus infected Sf9 cells using FAM-RHKK-Ac as substrate incubated for 17 hrs by electrophoretic mobility shift assay
T1 sequence (Q969S8 whole entry): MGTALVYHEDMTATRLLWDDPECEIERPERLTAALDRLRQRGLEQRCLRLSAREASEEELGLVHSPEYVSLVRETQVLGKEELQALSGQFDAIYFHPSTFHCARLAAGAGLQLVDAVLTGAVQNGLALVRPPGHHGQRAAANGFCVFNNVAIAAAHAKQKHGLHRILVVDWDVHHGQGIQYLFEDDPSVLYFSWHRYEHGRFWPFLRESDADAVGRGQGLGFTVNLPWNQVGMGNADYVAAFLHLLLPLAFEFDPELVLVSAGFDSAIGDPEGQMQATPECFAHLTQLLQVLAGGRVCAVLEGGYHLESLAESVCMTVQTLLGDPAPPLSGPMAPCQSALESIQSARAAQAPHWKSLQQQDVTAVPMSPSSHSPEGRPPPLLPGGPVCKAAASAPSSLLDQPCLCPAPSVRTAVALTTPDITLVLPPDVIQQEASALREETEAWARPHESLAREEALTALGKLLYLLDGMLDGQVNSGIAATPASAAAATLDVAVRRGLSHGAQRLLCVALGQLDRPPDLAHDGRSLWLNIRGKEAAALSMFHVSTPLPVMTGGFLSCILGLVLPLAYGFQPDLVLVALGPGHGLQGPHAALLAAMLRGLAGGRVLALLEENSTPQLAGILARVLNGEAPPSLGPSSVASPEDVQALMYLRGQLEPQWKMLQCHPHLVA

Histone deacetylase 9 = Histone deacetylase 9 (Homo sapiens, UniProt Q9UKV0); test: Inhibition of recombinant human HDAC9 (604-1066 residues) expressed in baculovirus infected Sf9 cells using FAM-RHKK-TFAc as substrate incubated for 3 hrs by electrophoretic mobility shift assay
Histone deacetylase 9, sequence (Q9UKV0 whole entry, the tested form may be a part): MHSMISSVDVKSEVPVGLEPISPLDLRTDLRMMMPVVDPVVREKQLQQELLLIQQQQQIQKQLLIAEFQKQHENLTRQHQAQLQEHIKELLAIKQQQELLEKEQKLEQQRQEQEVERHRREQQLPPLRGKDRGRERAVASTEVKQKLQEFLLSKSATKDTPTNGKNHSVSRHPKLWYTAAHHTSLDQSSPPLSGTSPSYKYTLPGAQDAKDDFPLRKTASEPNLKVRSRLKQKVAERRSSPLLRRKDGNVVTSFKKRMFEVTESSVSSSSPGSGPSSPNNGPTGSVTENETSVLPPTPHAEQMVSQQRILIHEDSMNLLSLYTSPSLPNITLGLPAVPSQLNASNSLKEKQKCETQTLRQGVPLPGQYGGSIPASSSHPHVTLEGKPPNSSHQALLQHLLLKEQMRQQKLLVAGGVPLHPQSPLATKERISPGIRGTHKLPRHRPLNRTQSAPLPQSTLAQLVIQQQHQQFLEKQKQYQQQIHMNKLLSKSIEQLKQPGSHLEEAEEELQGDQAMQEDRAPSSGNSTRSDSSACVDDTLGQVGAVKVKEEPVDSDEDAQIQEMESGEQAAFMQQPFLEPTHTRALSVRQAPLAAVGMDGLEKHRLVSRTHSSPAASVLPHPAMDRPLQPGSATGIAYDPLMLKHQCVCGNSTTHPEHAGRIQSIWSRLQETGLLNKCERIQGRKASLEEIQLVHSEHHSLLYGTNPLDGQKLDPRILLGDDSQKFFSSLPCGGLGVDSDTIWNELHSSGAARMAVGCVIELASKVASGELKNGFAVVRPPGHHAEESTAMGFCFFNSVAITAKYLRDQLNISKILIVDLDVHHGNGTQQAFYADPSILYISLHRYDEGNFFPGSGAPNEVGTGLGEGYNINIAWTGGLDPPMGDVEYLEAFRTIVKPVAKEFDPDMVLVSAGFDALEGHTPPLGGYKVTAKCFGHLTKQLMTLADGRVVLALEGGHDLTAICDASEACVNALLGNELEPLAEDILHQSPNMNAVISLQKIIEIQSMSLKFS

[2] = molecular target: T2, Protein deacetylase HDAC6 (Homo sapiens, UniProt Q9UBN7); test: Inhibition of recombinant full length human HDAC6 expressed in baculovirus infected Sf9 cells assessed as inhibitory constant using FAM-RHKK-Ac as substrate incubated for 5 hrs by electrophoretic mobility shift assay
T2 sequence (Q9UBN7 whole entry): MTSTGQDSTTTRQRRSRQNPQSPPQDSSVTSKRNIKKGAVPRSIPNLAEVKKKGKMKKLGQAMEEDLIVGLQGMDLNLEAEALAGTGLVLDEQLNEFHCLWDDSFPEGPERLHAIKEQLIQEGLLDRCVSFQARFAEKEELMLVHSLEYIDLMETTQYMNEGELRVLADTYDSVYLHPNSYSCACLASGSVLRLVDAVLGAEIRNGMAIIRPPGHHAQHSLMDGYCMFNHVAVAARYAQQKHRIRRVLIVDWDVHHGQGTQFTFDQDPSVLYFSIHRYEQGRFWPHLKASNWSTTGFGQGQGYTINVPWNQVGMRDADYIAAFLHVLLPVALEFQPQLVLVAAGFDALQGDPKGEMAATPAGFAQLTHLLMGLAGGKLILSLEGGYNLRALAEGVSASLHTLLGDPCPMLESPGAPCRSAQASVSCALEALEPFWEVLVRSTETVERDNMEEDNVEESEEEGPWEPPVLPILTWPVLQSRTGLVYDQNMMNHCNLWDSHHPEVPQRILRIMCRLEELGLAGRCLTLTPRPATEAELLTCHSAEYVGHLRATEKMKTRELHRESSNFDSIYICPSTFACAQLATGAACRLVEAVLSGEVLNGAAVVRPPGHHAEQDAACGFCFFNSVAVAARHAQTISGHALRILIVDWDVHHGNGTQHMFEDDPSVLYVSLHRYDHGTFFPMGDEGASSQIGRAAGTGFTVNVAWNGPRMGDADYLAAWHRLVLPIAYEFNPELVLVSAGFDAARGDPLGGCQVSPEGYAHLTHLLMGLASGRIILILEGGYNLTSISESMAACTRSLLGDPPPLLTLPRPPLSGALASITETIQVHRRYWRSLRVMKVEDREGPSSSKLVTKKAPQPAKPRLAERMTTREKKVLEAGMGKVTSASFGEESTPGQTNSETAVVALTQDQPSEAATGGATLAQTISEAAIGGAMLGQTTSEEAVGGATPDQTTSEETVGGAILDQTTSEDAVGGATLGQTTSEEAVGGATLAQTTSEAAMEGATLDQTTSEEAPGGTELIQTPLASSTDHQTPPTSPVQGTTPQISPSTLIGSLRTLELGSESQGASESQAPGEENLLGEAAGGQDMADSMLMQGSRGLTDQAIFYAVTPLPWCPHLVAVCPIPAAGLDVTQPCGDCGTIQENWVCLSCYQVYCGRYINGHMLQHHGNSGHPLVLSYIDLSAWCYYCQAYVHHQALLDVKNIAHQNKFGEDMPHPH

[3] = Cytotoxicity against human MRC9 cells assessed as reduction in cell viability incubated for 72 hrs by cell-titer blue assay; assay type: cell-based; conditions: MRC9, 72 h
MDA-MB-468 = test: Cytotoxicity against human MDA-MB-468 cells assessed as reduction in cell viability incubated for 72 hrs by cell-titer blue assay; assay type: functional, cell-based; conditions: MDA-MB-468, 72 h
[4] = Intrinsic clearance in ICR/CD1 mouse hepatocytes at 1 uM measured upto 120 mins by LCMS analysis; assay type: ADME, cell-based, Hepatocyte; conditions: 2 h
[5] = Protein binding in CD-1 mouse plasma at 1 uM incubated for 6 hrs by LCMS analysis; assay type: ADME, cell-free; conditions: mouse, 6 h, 1 µM
Histone deacetylase 8 = molecular target: T3, Histone deacetylase 8 (Homo sapiens, UniProt Q9BY41); test: Inhibition of recombinant full length human HDAC8 expressed in baculovirus infected Sf9 cells using FAM-RHKK-TFAc as substrate incubated for 3 hrs by electrophoretic mobility shift assay
T3 sequence (Q9BY41 whole entry): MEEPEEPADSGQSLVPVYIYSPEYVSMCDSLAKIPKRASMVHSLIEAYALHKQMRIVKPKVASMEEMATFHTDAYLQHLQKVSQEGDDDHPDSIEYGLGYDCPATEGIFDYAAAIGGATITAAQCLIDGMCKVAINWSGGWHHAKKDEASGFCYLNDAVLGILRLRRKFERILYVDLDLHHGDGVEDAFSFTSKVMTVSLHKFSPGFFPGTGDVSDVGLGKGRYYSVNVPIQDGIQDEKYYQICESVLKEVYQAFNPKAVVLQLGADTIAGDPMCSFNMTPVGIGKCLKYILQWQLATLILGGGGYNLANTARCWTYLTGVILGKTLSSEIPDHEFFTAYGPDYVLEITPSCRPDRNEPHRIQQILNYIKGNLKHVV

MOLM-13 = test: Cytotoxicity against human MOLM13 cells assessed as reduction in cell viability incubated for 72 hrs by cell-titer blue assay; assay type: functional, cell-based; conditions: MOLM-13, 72 h
[6] = Stability in CD-1 mouse hepatocytes assessed as compound remaining at 1 uM measured up to 6 hrs by LCMS analysis; assay type: ADME, cell-based, Hepatocyte; conditions: CD-1, mouse, read-out: Stability
[7] = Apparent permeability from apical to basolateral side in human Caco2 cells incubated for 2 hrs by LC/MS analysis; assay type: ADME, cell-based, Caco-2; conditions: caco-2, 2 h
[8] = Efflux ratio of apparent permeability in human Caco2 cells incubated for 2 hrs by LC/MS analysis; assay type: ADME, cell-based, Caco-2; conditions: caco-2, 2 h
MV4-11 [9] = test: Cytotoxicity against human MV4-11 cells assessed as reduction in cell viability incubated for 72 hrs by cell-titer blue assay; assay type: functional, cell-based; conditions: MV4-11, 72 h
MDA-MB-231 = test: Cytotoxicity against human MDA-MB-231 cells assessed as reduction in cell viability incubated for 72 hrs by cell-titer blue assay; assay type: functional, cell-based; conditions: MDA-MB-231, 72 h
MV4-11 [10] = test: Induction of apoptosis in human MV4-11 cells assessed as early apoptotic cells at 2 uM incubated for 18 hrs by annexin V FITC and PI based flow cytometry (reference value: 19.46 to 22.17 %); assay type: functional
MV4-11 [11] = test: Induction of apoptosis in human MV4-11 cells assessed as viable cells at 2 uM incubated for 18 hrs by annexin V FITC and PI based flow cytometry (reference value: 53.01 to 53.07 %); assay type: functional
MV4-11 [12] = test: Induction of apoptosis in human MV4-11 cells assessed as late apoptotic cells incubated for 18 hrs by annexin V FITC and PI based flow cytometry; assay type: functional, cell-based
MV4-11 [13] = test: Induction of apoptosis in human MV4-11 cells assessed as late apoptotic cells at 0.5 uM incubated for 18 hrs by annexin V FITC and PI based flow cytometry (reference value: 9.2 to 9.63 %); assay type: functional
MV4-11 [14] = test: Induction of apoptosis in human MV4-11 cells assessed as viable cells at 4 uM incubated for 18 hrs by annexin V FITC and PI based flow cytometry (reference value: 53.01 to 53.07 %); assay type: functional
MV4-11 [15] = test: Induction of apoptosis in human MV4-11 cells assessed as late apoptotic cells at 2 uM incubated for 18 hrs by annexin V FITC and PI based flow cytometry (reference value: 9.2 to 9.63 %); assay type: functional
MV4-11 [16] = test: Induction of apoptosis in human MV4-11 cells assessed as early apoptotic cells at 0.25 uM incubated for 18 hrs by annexin V FITC and PI based flow cytometry (reference value: 19.46 to 22.17 %); assay type: functional
[17] = Oral bioavailability in Balb/c nude mouse at 50 mg/kg measured upto 24 hrs by LC/MS/MS analysis; assay type: ADME, organism-based; conditions: in vivo
MV4-11 [18] = test: Induction of apoptosis in human MV4-11 cells assessed as late apoptotic cells at 4 uM incubated for 18 hrs by annexin V FITC and PI based flow cytometry (reference value: 9.2 to 9.63 %); assay type: functional
MV4-11 [19] = test: Induction of apoptosis in human MV4-11 cells assessed as viable cells at 0.5 uM incubated for 18 hrs by annexin V FITC and PI based flow cytometry (reference value: 53.01 to 53.07 %); assay type: functional
MV4-11 [20] = test: Induction of apoptosis in human MV4-11 cells assessed as late apoptotic cells at 1 uM incubated for 18 hrs by annexin V FITC and PI based flow cytometry (reference value: 9.2 to 9.63 %); assay type: functional
MV4-11 [21] = test: Induction of apoptosis in human MV4-11 cells assessed as viable cells at 1 uM incubated for 18 hrs by annexin V FITC and PI based flow cytometry (reference value: 53.01 to 53.07 %); assay type: functional
MV4-11 [22] = test: Induction of apoptosis in human MV4-11 cells assessed as early apoptotic cells at 0.5 uM incubated for 18 hrs by annexin V FITC and PI based flow cytometry (reference value: 19.46 to 22.17 %); assay type: functional
MV4-11 [23] = test: Induction of apoptosis in human MV4-11 cells assessed as early apoptotic cells at 1 uM incubated for 18 hrs by annexin V FITC and PI based flow cytometry (reference value: 19.46 to 22.17 %); assay type: functional
MV4-11 [24] = test: Induction of apoptosis in human MV4-11 cells assessed as viable cells at 0.25 uM incubated for 18 hrs by annexin V FITC and PI based flow cytometry (reference value: 53.01 to 53.07 %); assay type: functional
MV4-11 [25] = test: Induction of apoptosis in human MV4-11 cells assessed as late apoptotic cells at 0.25 uM incubated for 18 hrs by annexin V FITC and PI based flow cytometry (reference value: 9.2 to 9.63 %); assay type: functional
MV4-11 [26] = test: Induction of apoptosis in human MV4-11 cells assessed as early apoptotic cells at 4 uM incubated for 18 hrs by annexin V FITC and PI based flow cytometry (reference value: 19.46 to 22.17 %); assay type: functional

Histone deacetylase 5, sequence (Q9UQL6 whole entry): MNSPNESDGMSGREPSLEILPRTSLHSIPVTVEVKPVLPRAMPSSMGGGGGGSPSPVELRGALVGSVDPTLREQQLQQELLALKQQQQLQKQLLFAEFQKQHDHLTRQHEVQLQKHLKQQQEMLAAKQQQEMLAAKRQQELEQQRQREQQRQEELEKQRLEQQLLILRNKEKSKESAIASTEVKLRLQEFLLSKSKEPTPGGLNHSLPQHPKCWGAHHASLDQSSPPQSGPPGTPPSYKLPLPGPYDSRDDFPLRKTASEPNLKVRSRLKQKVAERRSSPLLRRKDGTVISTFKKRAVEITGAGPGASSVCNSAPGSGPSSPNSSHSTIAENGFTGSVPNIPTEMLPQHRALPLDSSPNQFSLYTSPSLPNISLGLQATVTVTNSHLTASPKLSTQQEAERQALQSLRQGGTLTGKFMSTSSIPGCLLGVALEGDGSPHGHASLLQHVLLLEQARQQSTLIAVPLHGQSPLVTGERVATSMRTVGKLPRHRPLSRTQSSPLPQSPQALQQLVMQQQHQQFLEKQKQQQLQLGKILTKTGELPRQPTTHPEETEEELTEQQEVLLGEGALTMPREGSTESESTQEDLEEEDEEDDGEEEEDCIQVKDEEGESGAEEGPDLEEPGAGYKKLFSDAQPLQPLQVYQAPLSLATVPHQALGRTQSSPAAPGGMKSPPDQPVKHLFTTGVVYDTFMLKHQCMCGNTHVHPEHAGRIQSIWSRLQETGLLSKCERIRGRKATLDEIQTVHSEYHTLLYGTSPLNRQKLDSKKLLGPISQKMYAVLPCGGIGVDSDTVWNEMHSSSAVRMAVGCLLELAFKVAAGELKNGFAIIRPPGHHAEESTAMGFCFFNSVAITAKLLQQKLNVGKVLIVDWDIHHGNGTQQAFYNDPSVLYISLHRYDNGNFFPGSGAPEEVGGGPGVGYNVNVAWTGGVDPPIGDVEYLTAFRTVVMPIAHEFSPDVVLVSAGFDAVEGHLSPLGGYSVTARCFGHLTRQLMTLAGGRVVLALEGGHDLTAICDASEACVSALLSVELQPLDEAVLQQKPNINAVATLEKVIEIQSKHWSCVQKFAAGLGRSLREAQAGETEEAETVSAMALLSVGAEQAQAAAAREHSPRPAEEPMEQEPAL

## Cn1cc(CNCC2CCN(c3ncc(C(=O)NO)cn3)CC2)c2ccccc21 [QUISINOSTAT]
Histone deacetylase 5
  IC50: 0.00595 µM
[1]
  IC50: 0.00196 µM
Histone deacetylase 9
  IC50: 0.0067 µM

## CC(C)(C)c1ccc(CN(C(=O)CN(Cc2c(F)c(F)c(F)c(F)c2F)S(=O)(=O)c2ccc(F)cc2)c2ccc(C(=O)NO)cc2)cc1
[2]
  Ki: 3.6 µM
[3]
  IC50: 19.2 µM
MDA-MB-468
  IC50: 4.21 µM
[4]
  CLH: 36 µL/min
[5]
  PPB: 99.6%
Histone deacetylase 8
  IC50: > 1 µM
MOLM-13
  IC50: 2.1 µM
[6]
  remaining at 6 h, 1 µM: 20%
[7]
  Papp: 2.7 nm/s
[8]
  Ratio: 3.83
MV4-11 [9]
  IC50: 1.88 µM
MDA-MB-231
  IC50: 2.62 µM

## O=C(CCCCCCC(=O)Nc1ccccc1)NO [VORINOSTAT]
MV4-11 [10]
  Activity: 35.72%
MV4-11 [11]
  Activity: 24.13%
MV4-11 [12]
  Activity: Dose-dependent effect
MV4-11 [13]
  Activity: 11.46%
MV4-11 [14]
  Activity: 20.37%
MV4-11 [15]
  Activity: 30.07%
MV4-11 [16]
  Activity: 19.79%
[17]
  bioavailability: 8%
MV4-11 [18]
  Activity: 26.52%
MV4-11 [9]
  IC50: 0.31 µM
MV4-11 [19]
  Activity: 38.87%
MV4-11 [20]
  Activity: 27.29%
MV4-11 [21]
  Activity: 28.82%
MV4-11 [22]
  Activity: 15.37%
MV4-11 [23]
  Activity: 24.22%
MV4-11 [24]
  Activity: 51.83%
MV4-11 [25]
  Activity: 12.72%
MV4-11 [26]
  Activity: 35.44%
